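Step 1: Grow cells in 96-well plates. Step 2: Expose to compound for 48 hours at 5 concentrations. Step 3: Interpolate endpoints linearly; if unreached, use highest concentration. TGI: total growth inhibition.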 A value given as a limit tells only on which side of the number the result lay.

Test systems include 786-0 renal; HCT-116 colon; HS 578T breast; MDA-MB-231 breast; SF-539 CNS; SR leukemia.
Test in all cases: growth of human tumour cells (NCI), 48 h

As to `CC(=O)NC1C(OCc2ccccc2)OC(CO)C(O)C1OC(C)C(=O)NC(C(=O)NC(CCC(=O)Nc1ccc2c(c1)CN1C(=O)c3ccccc3C1=N2)C(N)=O)C(C)C` (stereo unspecified), the TGI with 786-0 renal, in the test on HCT-116 colon, in the test with HS 578T breast, in the test with MDA-MB-231 breast, in the test on SF-539 CNS and in the test on SR leukemia was over 100 µM in each case.
Take `Cc1c(O)c(OC2OC(CO)C(O)C(O)C2O)cc2c1CC[C@@H]1C2(C)C(=O)C[C@]2(C)[C@@H]([C@@](C)(O)C(O)CCC(C)(C)O)[C@H](O)C[C@@]12C` (stereo partly specified): the TGI with 786-0 renal, with HCT-116 colon, with MDA-MB-231 breast, with SF-539 CNS and in the test on SR leukemia was over 100 µM each time.
As for `COc1cc(O)c2c(=O)cc(C3(OC(C)=O)C=CC(OC4OC(CO)C(O)C(O)C4O)C=C3)oc2c1` (stereo unspecified), the TGI with 786-0 renal, with HCT-116 colon, in the test with MDA-MB-231 breast, in the test on SF-539 CNS and with SR leukemia was over 100 µM throughout.
On to `CC(C)Cn1cnnc1NS(=O)(=O)c1cc(C(=O)NN)c(Cl)cc1S`, for which the TGI in the test on 786-0 renal, in the test on HCT-116 colon, in the test with HS 578T breast, in the test with MDA-MB-231 breast and with SF-539 CNS was over 10 µM throughout.
Turning to `COc1cc(-c2c(C(C)=O)c(-c3ccccc3)n(C3OC(COC(C)=O)C(OC(C)=O)C(OC(C)=O)C3OC(C)=O)c(=S)c2C#N)ccc1O` (stereo unspecified), the TGI with 786-0 renal, in the test on HCT-116 colon, in the test with HS 578T breast and in the test with SR leukemia was over 100 µM each time.
For `NC1=NC(=O)[C@H](CSCc2ccccc2)N1C(=O)OCc1ccccc1`, the TGI in the test on 786-0 renal, in the test with HCT-116 colon, in the test on HS 578T breast, in the test on MDA-MB-231 breast and with SR leukemia was over 100 µM in each case.
`CSc1ccc(C=C2N=C(c3ccccc3)N(c3cc(C(=O)c4ccccc4)ccc3N3C(=O)/C(=C/c4ccc(SC)cc4)N=C3c3ccccc3)C2=O)cc1`: the TGI in the test on 786-0 renal is over 100 µM; with HCT-116 colon it was over 100 µM; with HS 578T breast, over 100 µM; in the test on MDA-MB-231 breast it was over 100 µM; in the test with SF-539 CNS, 79.5 µM.
On to `CC(=O)Nc1ccccc1S(=O)(=O)c1c(-c2c(C)c(Cl)c(C)c(Cl)c2C)noc1C`, for which the TGI in the test with 786-0 renal is 40.6 µM; in the test on HCT-116 colon, over 100 µM; in the test with HS 578T breast, 73.7 µM; in the test on MDA-MB-231 breast, 88 µM; with SR leukemia it was 43.2 µM.
In the same order, the values of `Brc1ccc(C2(N3CCCCC3)CCCCC2)s1` are over 100 µM, over 100 µM, over 100 µM, over 100 µM and 44.3 µM.
On to `NC(=S)NS(=O)(=O)c1ccc(F)cc1`, for which the TGI in the test on 786-0 renal, with HCT-116 colon, with HS 578T breast, in the test with MDA-MB-231 breast and in the test with SF-539 CNS was over 100 µM in each case.
Regarding `Nc1cccc2cc(S(=O)(=O)Nc3ccc(C(=O)O)cc3)ccc12`, the TGI in the test with 786-0 renal, in the test with HCT-116 colon, in the test on HS 578T breast, in the test with MDA-MB-231 breast and in the test with SR leukemia was over 100 µM in each case.
On to `COC(=O)[C@H]1[C@H](OC(=O)[C@@H](OC)c2ccccc2)ON2CC[C@@H](OC(=O)c3ccccc3)[C@H]12`, for which the TGI with 786-0 renal, with HCT-116 colon, in the test on HS 578T breast, in the test on MDA-MB-231 breast and in the test with SR leukemia was over 100 µM in each case.
`Cc1cc2c(cc1-c1cc3c(cc1C)C(C(C)C)=C(O)C(=O)/C3=C\Nc1cccc3c(N)cccc13)/C(=C/Nc1cccc3c(N)cccc13)C(=O)C(O)=C2C(C)C`: the TGI in the test with 786-0 renal, in the test with HCT-116 colon, in the test with HS 578T breast, in the test on MDA-MB-231 breast and in the test on SR leukemia was over 100 µM in each case.
Regarding `N#CCCN(CCC#N)c1ccc(/C=C2\N=C(c3ccccc3)N(NC(=O)c3ccncc3)C2=O)cc1`, the TGI in the test on 786-0 renal, in the test on HCT-116 colon, in the test on HS 578T breast, in the test with MDA-MB-231 breast and in the test with SF-539 CNS was over 100 µM throughout.
On to `CC(C)(C)OC(=O)N1CCC[C@H]1CSC[C@@H]1CCCN1C(=O)OC(C)(C)C`, for which the TGI was over 100 µM in the test with 786-0 renal, 78.5 µM in the test on HCT-116 colon, 79.3 µM with HS 578T breast and over 100 µM with MDA-MB-231 breast.
For the molecule `O=C1C(c2c(O)n(-c3ccccc3)c3ccccc23)=Nc2ccccc21`, the TGI in the test with 786-0 renal is 36.7 µM; in the test with HCT-116 colon, over 100 µM; with HS 578T breast it was over 100 µM; in the test with MDA-MB-231 breast, 81.5 µM; in the test with SR leukemia it was over 100 µM.
`O=C1c2cc([N+](=O)[O-])cnc2S(=O)(=O)N1c1ccc(Oc2ccccc2)cc1`: the TGI in the test on 786-0 renal, in the test with HCT-116 colon, in the test with HS 578T breast, in the test with MDA-MB-231 breast and in the test on SR leukemia was over 100 µM throughout.
In the case of `COc1ccc(/C=N/Nc2nc3ccccc3c(=O)n2-c2ccccc2)cc1`, the TGI with 786-0 renal, in the test on HCT-116 colon, in the test on MDA-MB-231 breast, with SF-539 CNS and in the test on SR leukemia was over 100 µM each time.
Turning to `O=C(O)C1CCCCN1CCc1c[nH]c2ccccc12` (stereo unspecified), the TGI with 786-0 renal, with HCT-116 colon, in the test with MDA-MB-231 breast and in the test with SF-539 CNS was over 100 µM in each case.
Take `CCOC(=O)CC(=O)Nc1c(C(=O)OCC)sc2nc(SC)nc(Nc3ccc(OC)c(OC)c3)c12`: the TGI in the test on 786-0 renal is 37 µM; with HCT-116 colon it was over 100 µM; in the test with HS 578T breast it was over 100 µM; in the test with MDA-MB-231 breast it was over 100 µM; in the test on SF-539 CNS, 69.2 µM.
As to `Cc1ccc(CCCC(=O)O)cc1C`, the TGI with 786-0 renal, in the test on HCT-116 colon, with MDA-MB-231 breast and in the test on SR leukemia was over 100 µM each time.
In the case of `CC1(C)O[C@@H]([C@@H](O)[C@H](O)C2SCCCS2)[C@@H](CO)O1`, the TGI in the test on 786-0 renal, with HCT-116 colon, with HS 578T breast and in the test with MDA-MB-231 breast was over 100 µM in each case.
As to `C/C(O)=C/c1nc2sc(C)c(C)c2c(=O)s1`, the TGI with 786-0 renal was over 100 µM; with HCT-116 colon, over 100 µM; in the test with HS 578T breast it was 74 µM; in the test on MDA-MB-231 breast, over 100 µM; in the test with SF-539 CNS, over 100 µM.

These data come from PubChem BioAssay (NCI).
